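Five concentrations, 48 hours, 96-well plates. At the TGI there is no net growth.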
Key:
Assay in all cases: NCI-60 cell line screen, 48 h
HCT-15 colon = system: HCT-15 colon
HT29 colon = system: HT29 colon
EKVX NSCLC = system: EKVX NSCLC
NCI-H23 lung = system: NCI-H23 lung
SF-539 CNS = system: SF-539 CNS
HCC-2998 colon = system: HCC-2998 colon
NCI-H460 lung = system: NCI-H460 lung
HCT-116 colon = system: HCT-116 colon
SNB-75 CNS = system: SNB-75 CNS

Row | SMILES | TGI (HCT-15 colon) [µM] | TGI (HT29 colon) [µM] | TGI (EKVX NSCLC) [µM] | TGI (NCI-H23 lung) [µM] | TGI (SF-539 CNS) [µM] | TGI (HCC-2998 colon) [µM] | TGI (NCI-H460 lung) [µM] | TGI (HCT-116 colon) [µM] | TGI (SNB-75 CNS) [µM]
1 | CCOc1cc(NC(C)=O)ccc1C(=O)NN1C(=O)/C(=C/c2cc(OC)c(OC)c(OC)c2)N=C1c1ccccc1 | > 100 | > 100 | > 100 | > 100 | > 100 | > 100 | > 100 | > 100 | –
2 | COc1cccc(-c2cc(=O)c3c(C)ccnc3[nH]2)c1 | – | > 100 | > 100 | > 100 | – | 0.27 | > 34.4 | > 100 | 0.0417
3 | S=C1N=C(Cl)C2(NN1)c1ccccc1-c1ccccc12 | > 10 | – | > 10 | > 10 | > 10 | > 10 | > 10 | – | > 10
4 | C=CC[C@H]1[C@H](O[Si](C)(C)C(C)(C)C)C=CC(=O)[C@@H]1CC(=O)N(Cc1ccccc1)Cc1ccccc1 | 35.6 | 29.2 | > 100 | 30.5 | > 100 | 73.6 | > 100 | 54.5 | –
5 | CN1CN(c2ccccc2)C2(CCN(CCc3csc4ccccc34)CC2)C1=O | 51.5 | 17.8 | 43 | 42.5 | 23 | – | – | 23.4 | 38.5
6 | CC1(C)N=C(N)N=C(N)N1c1cccc(OCCOc2ccc([N+](=O)[O-])cc2)c1 | > 100 | > 100 | > 100 | > 100 | > 100 | – | > 100 | > 100 | –
7 | CC12Cc3cc4c(cc3C1(c1ccc([N+](=O)[O-])cc1)OCCO2)OCO4 (configuration not stated) | > 100 | > 100 | > 100 | > 100 | > 100 | > 100 | > 100 | > 100 | –
8 | CC1(C)CC(=O)c2c(nc3ccc4ccccc4c3c2-c2ccc(NC(=O)CCC(=O)Nc3ccc(-c4c5c(nc6ccc7ccccc7c46)CC(C)(C)CC5=O)cc3)cc2)C1 | – | > 100 | > 100 | – | > 100 | – | > 100 | > 100 | > 100
9 | COc1cc2c(cc1OC)CC(N=[N+]=[N-])c1cc(OC)c(OC)cc1/C=C\2 (configuration not stated) | > 100 | > 100 | > 100 | – | > 100 | > 100 | > 100 | > 100 | > 100
10 | c1cc2c(c(-c3c4ccccc4nc4ccccc34)c1)CC1(CC2)OCCO1 | > 100 | – | > 100 | > 100 | > 100 | > 100 | > 100 | > 100 | > 100
11 | CC1(C)Oc2ccc3c(=O)cc(-c4ccc(F)cc4)oc3c2C1C(=O)O (configuration not stated) | – | > 100 | > 100 | > 100 | > 100 | > 100 | – | > 100 | –
12 | Cc1nc2c(sc3nc4ccccc4n32)c(=O)[nH]1 | > 100 | – | > 100 | > 100 | > 100 | > 100 | – | > 100 | > 100
13 | O=c1oc2ccccc2n1CCN1CCCCC1 | > 100 | > 100 | > 100 | > 100 | > 100 | – | > 100 | > 100 | > 100
14 | Cc1nnc2n1-c1ccccc1C(=S)N1CSCC21 (configuration not stated) | > 100 | > 100 | > 100 | – | – | > 100 | > 100 | > 100 | > 100

— PubChem BioAssay (NCI)
